The text below walks through data of ChEMBL document CHEMBL3045902, “Actions of imidacloprid, clothianidin and related neonicotinoids on nicotinic acetylcholine receptors of American cockroach neurons and their relationships with insecticidal potency” (J Pestic Sci, 2006).

Calls of active or inactive are those of the source. The rule behind the calls is not given here.

Data set [1] can be described thus: Hydrophobicity, log K of the compound by HPLC. In kind it is physicochemical.
The subject of a further data set is Periplaneta americana. As to the kind of experiment: Insecticidal activity against Periplaneta americana (American cockroach) assessed as killing measured per insect at 25 to 28 degC for 24 hr in presence of piperonyl butoxide. The class given is functional.
Data set [2] has as its target T1, Nicotinic acetylcholine receptor alpha8 subunit (Periplaneta americana) (UniProt H6TY12).
T1 sequence (whole entry): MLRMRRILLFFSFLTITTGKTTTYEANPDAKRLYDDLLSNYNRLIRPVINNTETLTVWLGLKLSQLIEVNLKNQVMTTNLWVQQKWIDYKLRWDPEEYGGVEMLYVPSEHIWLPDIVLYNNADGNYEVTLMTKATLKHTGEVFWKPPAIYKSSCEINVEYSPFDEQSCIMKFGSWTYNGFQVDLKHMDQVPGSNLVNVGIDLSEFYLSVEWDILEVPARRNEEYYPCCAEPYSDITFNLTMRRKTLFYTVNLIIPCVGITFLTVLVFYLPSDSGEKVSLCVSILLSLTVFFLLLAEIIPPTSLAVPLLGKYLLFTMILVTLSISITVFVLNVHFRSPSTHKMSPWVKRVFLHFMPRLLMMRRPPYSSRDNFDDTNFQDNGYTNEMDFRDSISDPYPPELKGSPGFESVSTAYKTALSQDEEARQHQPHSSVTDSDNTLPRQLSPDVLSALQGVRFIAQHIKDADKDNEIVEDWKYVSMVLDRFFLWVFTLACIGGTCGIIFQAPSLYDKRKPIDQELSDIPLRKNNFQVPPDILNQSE
As to the kind of experiment: Agonist activity at Periplaneta americana (American cockroach) nAChR in terminal abdominal ganglion assessed as assessed as inward current by tight-seal whole cell patch clamp method relative to 100 uM ACh. In kind it is tissue-based.

In data set [3] the target is T2, Nicotinic acetylcholine receptor alpha8 subunit (Periplaneta americana, UniProt H6TY12).
T2 sequence (H6TY12 whole entry): T1 sequence (whole entry)
As to the kind of experiment: Agonist activity at Periplaneta americana (American cockroach) nAChR in terminal abdominal ganglion assessed as assessed as inward current by tight-seal whole cell patch clamp method. The class given is tissue-based. For orientation: The patch-clamp technique gives a direct electrical read-out from membranes.

In the case of `O=[N+]([O-])/N=C1\NCCN1Cc1cnc(Cl)s1` [IMIDACLOTHIZ], in data set [1], the “log K” value turned out to be 0.28. The pMLD in the data set with Periplaneta americana was 9.07. Also, the Imax in data set [2] is 0.3. The EC50 in data set [3] was 1.58 µM.
For `O=[N+]([O-])/N=C1\NCCN1Cc1ccc(Cl)nc1` [IMIDACLOPRID], the pMLD with Periplaneta americana is given as 10.4. Also, in data set [2], the Imax is 0.11.
For the compound `CN/C(=C\[N+](=O)[O-])NCc1ccc(Cl)nc1`, the “log K” value in data set [1] was 0.16. Further, in the data set with Periplaneta americana, the pMLD was determined as 9.22. Also, in data set [2], the Imax came out at 0.44. For the same compound, the EC50 in data set [3] was 0.0389 µM.
The matching figures for `O=[N+]([O-])/C=C1\NCCN1Cc1ccc(Cl)nc1`: 0.05, 10.1, 0.24 and 0.0724 µM.
In the case of `CC(=O)OCC[N+](C)(C)C` [ACETYLCHOLINE], in the data set on Periplaneta americana, the pMLD result was “inactive”. In addition, the EC50 in data set [3] is 11.5 µM.
As for `C/N=C(\NCc1ccc(Cl)nc1)N[N+](=O)[O-]`, in data set [1], the “log K” value worked out at 0.11. Moreover, the pMLD with Periplaneta americana came out at 9.52. In addition, the Imax in data set [2] turned out to be 0.31. Besides, the EC50 in data set [3] is 1.86 µM.
The matching figures for `O=[N+]([O-])/C=C1\NCCN1Cc1cnc(Cl)s1`: 0.03, 10.2, 0.3 and 0.0158 µM.
Turning to `CN/C(=N\[N+](=O)[O-])NCc1cnc(Cl)s1` [CLOTHIANIDINE], in data set [1], the “log K” value was 0.17. Moreover, in the data set with Periplaneta americana, the pMLD was 10.2. Further, in data set [2], the Imax was 0.68. In addition, the EC50 in data set [3] is 1.58 µM.
As for `O=[N+]([O-])NC1=NCCN1Cc1ccc(Cl)nc1` [IMIDACLOPRID], the “log K” value in data set [1] is 0.23. Besides, the EC50 in data set [3] was 1.32 µM.
In the case of `CN/C(=C\[N+](=O)[O-])NCc1cnc(Cl)s1`, in data set [1], the “log K” value is listed as 0.14. The pMLD in the data set with Periplaneta americana is listed as 10.2. The Imax in data set [2] turned out to be 0.47. Moreover, the EC50 in data set [3] is 0.0195 µM.

By EC50 is commonly meant the concentration that produces a half-maximal response.
